In patent publication US12643867B2, “Compositions and uses thereof” (University of Virginia Patent Foundation, priority 2017, dated 2026):

Experiments:
Test in all cases: SILAC LC-MS ATP acyl phosphate probe competition, native kinases in HEK293T
Type in all cases: binding
[1] = biological target: T1, PI42C (Phosphatidylinositol-5-phosphate 4-kinase type-2 gamma) (Homo sapiens, UniProt Q8TBX8); conditions: site C2; ATP 1 mM; Ketanserin, Ritanserin 100 μM; RF001 1 mM
T1 construct: Native kinases; endogenous in cells; host or cells: HEK293T soluble proteome
T1 sequence (Q8TBX8 1-421): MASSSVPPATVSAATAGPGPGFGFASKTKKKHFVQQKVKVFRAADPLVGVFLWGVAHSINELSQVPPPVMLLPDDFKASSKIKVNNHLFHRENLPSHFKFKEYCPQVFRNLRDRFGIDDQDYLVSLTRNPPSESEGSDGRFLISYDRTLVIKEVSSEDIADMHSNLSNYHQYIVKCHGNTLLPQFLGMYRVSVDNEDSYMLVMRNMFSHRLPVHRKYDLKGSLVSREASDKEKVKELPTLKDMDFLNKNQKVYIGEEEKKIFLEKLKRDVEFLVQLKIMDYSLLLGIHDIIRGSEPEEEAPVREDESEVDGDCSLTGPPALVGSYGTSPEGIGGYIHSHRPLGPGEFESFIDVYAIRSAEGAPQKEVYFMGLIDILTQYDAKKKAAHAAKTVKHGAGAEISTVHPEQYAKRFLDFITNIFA
Procedure: (§1) Proteomes were diluted to 2 mg/ml in kinase buffer. The light and heavy proteomes (0.5 mg, 250 μL total reaction volume) were pre-treated with vehicle or compound, respectively (5 μL, DMSO (light) or 50× stock in DMSO (heavy)), mixed gently, and incubated at 25° C. for 30 min. […] After incubation, matched light and heavy proteomes were transferred and mixed in a 1:1 ratio in a two-dram vial containing 4:1:3 MeOH/CHCl3/H2O (2 mL MeOH, 500 AL CHCl3, 1.5 mL H2O) for extraction of proteins to remove excess probe, quickly vortexed, and centrifuged at 1,400×g for 3 min to pellet protein. Organic and aqueous layers were removed using a Pasteur pipette, and the protein pellet was transferred to a screw-top tube in 600 μL MeOH. A second extraction was performed by adding CHCl3 (150 μL) and H2O (600 μL) to each sample, vortexed, and centrifuged at 1,400×g for 3 min to pellet protein. Organic and aqueous layers were removed by pipetting. MeOH added to pellet (600 μL) and pellets were re-suspended by sonication (3×1 sec pulse, 20% amplitude) for a final extraction. Samples were then centrifuged at 17,000×g for 5 min to pellet protein and MeOH was removed by pipetting. The pellets were re-suspended in 10 M urea/25 mM ammonium bicarbonate ([…]), brought to a final volume of 1 mL with 25 mM ammonium bicarbonate, reduced with 10 mM DTT for 15 min at 65° C. allowed to cool, and then alkylated with 40 mM iodoacetamide for 30 min at 25° C. in the dark. To desalt the samples, each was transferred to a two-dram glass vial, and to the vial 4:1:2 MeOH/CHCl3/H2O (2 mL MeOH, 500 AL CHCl3, 1 mL H2O) was added. The vials were vortexed quickly, spun at 1.400×g for 3 min to pellet protein, and aqueous and organic layers were removed using a Pasteur pipette. The resulting protein pellet was transferred to a screw-top tube in 600 μL MeOH, and then CHCl3 (150 μL) and HO (600 μL) were added to extract protein a second time. The samples were vortexed quickly, centrifuged at 1,400×g to pellet protein, and the aqueous and organic layers were removed by pipetting. Resulting protein pellet was suspended in MeOH (600 μL) via sonication (3×1 sec pulse, 20% amplitude), centrifuged at 17,000×g for 5 min to pellet protein, and MeOH removed by pipetting. Protein pellets were then re-suspended in 25 mM ammonium bicarbonate (500 μL) and digested with 7.5 μg Trypsin/Lys-C(Promega, 15 μL, 0.5 μg/μL) for 3 h at 37° C. Avidin-agarose beads (Thermo Scientific Pierce, 100 AL aliquot per sample) were washed three times by adding 10 mL DPBS, centrifuged at 1,400×g for 1 min, and decanting. This wash step was repeated for a total of 3 times. Digested protein samples were mixed with washed avidin beads (100 μL) and brought to a volume of 5.5 mL with DPBS in a 15 mL conical and rotated for 1 h to enrich samples for the covalent desthiobiotin modification. The beads were washed with 25 mM ammonium bicarbonate (3× with 10 mL, centrifuge at 1,400×g for 3 min, decant) and then H2O (3× with 10 mL, centrifuge at 1,400×g for 3 min, decant). Washed beads were then transferred to a low-bind microfuge tube, centrifuged at 1,400×g for 3 min, allowed to rest for 1 min to settle beads, and then excess H2O was removed carefully using a gel-loading pipette tip. To elute peptides, 100 μL of elution buffer (50% acetonitrile, ACN; 0.1% formic acid) was added to each sample and incubated for 3 min. Beads were spun down at 1.400×g for 3 min, allowed to rest for 1 min to settle beads, and then 75 μL of peptide-containing supernatant was removed carefully using a gel-loading pipette tip and transferred to a new low bind centrifuge tube. This step was repeated two more times with 75 μL of elution buffer and all eluent were collected into the same centrifuge tube (˜225 μL total). Peptides were dried on a speed vacuum, resulting peptide samples acidified in 5% (v/v) formic acid, and stored at −80° C. until analysis.
(§2) The peptide samples were analyzed by liquid chromatography-mass spectrometry. […]

[2] = biological target: T2, MP2K4 (Dual specificity mitogen-activated protein kinase kinase 4) (Homo sapiens, UniProt P45985); conditions: site Lys2; ATP 1 mM; Ketanserin, Ritanserin 100 μM; RF001 1 mM
T2 construct: Native kinases; endogenous in cells; host or cells: HEK293T soluble proteome
T2 sequence (P45985 1-399): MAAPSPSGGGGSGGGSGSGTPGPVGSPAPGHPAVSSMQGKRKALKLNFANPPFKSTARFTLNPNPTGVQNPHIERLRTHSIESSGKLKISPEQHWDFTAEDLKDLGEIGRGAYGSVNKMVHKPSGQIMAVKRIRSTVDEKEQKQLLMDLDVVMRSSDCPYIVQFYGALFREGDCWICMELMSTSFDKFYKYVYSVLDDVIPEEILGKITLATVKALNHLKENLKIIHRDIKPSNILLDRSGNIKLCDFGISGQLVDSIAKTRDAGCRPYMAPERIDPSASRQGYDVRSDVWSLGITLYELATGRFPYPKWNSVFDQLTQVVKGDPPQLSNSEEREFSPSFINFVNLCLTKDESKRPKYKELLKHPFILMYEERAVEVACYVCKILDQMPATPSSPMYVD
Procedure: as §1, §2

[3] = biological target: T3, IRAK1 (Interleukin-1 receptor-associated kinase 1) (Homo sapiens, UniProt P51617); conditions: site Lys2; ATP 1 mM; Ketanserin, Ritanserin 100 μM; RF001 1 mM
T3 construct: measured against >50 native kinases quantified in HEK293T soluble proteomes; endogenous in cells; host or cells: HEK293T soluble proteome
T3 sequence (P51617 whole entry): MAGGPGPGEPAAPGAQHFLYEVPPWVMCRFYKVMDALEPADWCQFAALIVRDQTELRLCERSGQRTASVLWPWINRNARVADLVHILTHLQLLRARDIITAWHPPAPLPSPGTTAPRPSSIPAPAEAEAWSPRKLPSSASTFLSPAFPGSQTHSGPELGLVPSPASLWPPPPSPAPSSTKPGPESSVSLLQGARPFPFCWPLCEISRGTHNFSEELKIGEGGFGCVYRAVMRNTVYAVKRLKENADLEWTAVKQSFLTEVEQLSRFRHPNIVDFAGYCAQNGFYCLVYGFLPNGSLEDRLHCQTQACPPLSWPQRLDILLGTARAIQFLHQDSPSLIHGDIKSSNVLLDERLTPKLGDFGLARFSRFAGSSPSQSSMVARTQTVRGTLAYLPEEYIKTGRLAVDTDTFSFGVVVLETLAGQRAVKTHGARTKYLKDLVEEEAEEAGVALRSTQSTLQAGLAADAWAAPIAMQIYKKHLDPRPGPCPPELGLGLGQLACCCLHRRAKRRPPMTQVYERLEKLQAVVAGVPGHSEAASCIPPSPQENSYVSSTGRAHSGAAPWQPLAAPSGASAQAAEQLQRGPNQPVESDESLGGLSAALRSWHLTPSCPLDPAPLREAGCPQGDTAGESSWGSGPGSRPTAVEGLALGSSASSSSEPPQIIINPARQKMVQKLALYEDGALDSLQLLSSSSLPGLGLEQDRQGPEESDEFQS
Procedure: as §1, §2

[4] = biological target: T4, KCC1D (Calcium/calmodulin-dependent protein kinase type 1D) (Homo sapiens, UniProt Q8IU85); conditions: site Lys1; ATP 1 mM; Ketanserin, Ritanserin 100 μM; RF001 1 mM
T4 construct: measured against >50 native kinases quantified in HEK293T soluble proteomes; endogenous in cells; host or cells: HEK293T soluble proteome
T4 sequence (Q8IU85 whole entry): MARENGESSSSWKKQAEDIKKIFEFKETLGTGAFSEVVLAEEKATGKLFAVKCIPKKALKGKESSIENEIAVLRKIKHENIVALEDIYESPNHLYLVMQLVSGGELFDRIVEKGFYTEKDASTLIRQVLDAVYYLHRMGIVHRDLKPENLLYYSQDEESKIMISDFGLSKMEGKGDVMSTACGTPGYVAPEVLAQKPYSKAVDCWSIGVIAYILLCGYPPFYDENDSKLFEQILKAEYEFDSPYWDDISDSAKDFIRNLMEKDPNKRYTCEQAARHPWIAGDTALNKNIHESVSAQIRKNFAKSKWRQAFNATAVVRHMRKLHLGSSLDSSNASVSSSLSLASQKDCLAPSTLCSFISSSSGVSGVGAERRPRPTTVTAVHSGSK
Procedure: as §1, §2

SMILES	SILAC ratio, PI42C probe-modified peptide [1]	SILAC ratio, MP2K4 probe-modified peptide [2]	SILAC ratio, IRAK1 probe-modified peptide [3]	SILAC ratio, KCC1D probe-modified peptide [4]
O=C(c1ccc(F)cc1)C1CCN(CCn2c(=O)[nH]c3ccccc3c2=O)CC1 [Ketanserin]	1.2	1.3	1.4	1.5
Fc1ccc(C(=C2CCNCC2)c2ccc(F)cc2)cc1 [RF001, 4-(Bis(4-fluorophenyl)methylene) piperidine]	0.8	0.9	2.2	1.1
Cc1nc2sccn2c(=O)c1CCN1CCC(=C(c2ccc(F)cc2)c2ccc(F)cc2)CC1 [Ritanserin]	1.7	1.6	2.6	2.3
